Measurements as given in PubChem BioAssay (NCI).
Several values for one entry are separate records, joined by “and”; a condition that tells them apart may be missing. Equal entries are not always repeated.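 Compound exposure: 48 hours, 5 concentrations, 96-well plates. The concentration for 50% growth inhibition is given as GI50. TGI denotes the concentration required for complete inhibition of growth.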

Columns and labels:
Test in all cases: DTP human tumour cell line panel, 48 h
NCI-H460 lung = test system: NCI-H460 lung
NCI-H226 lung = test system: NCI-H226 lung
SK-MEL-28 melanoma = test system: SK-MEL-28 melanoma
DU-145 prostate = test system: DU-145 prostate
SK-MEL-5 melanoma = test system: SK-MEL-5 melanoma
PC-3 prostate = test system: PC-3 prostate
MCF7 breast = test system: MCF7 breast
MALME-3M melanoma = test system: MALME-3M melanoma
SNB-19 CNS = test system: SNB-19 CNS
HCC-2998 colon = test system: HCC-2998 colon
HCT-116 colon = test system: HCT-116 colon
UACC-257 melanoma = test system: UACC-257 melanoma
KM12 colon = test system: KM12 colon
OVCAR-5 ovarian = test system: OVCAR-5 ovarian
HL-60(TB) leukemia = test system: HL-60(TB) leukemia
RXF 393 renal = test system: RXF 393 renal
NCI/ADR-RES ovarian = test system: NCI/ADR-RES ovarian
SF-539 CNS = test system: SF-539 CNS
HOP-62 NSCLC = test system: HOP-62 NSCLC

Structure (SMILES)	TGI (NCI-H460 lung) [µM]	TGI (NCI-H226 lung) [µM]	TGI (SK-MEL-28 melanoma) [µM]	TGI (DU-145 prostate) [µM]	TGI (SK-MEL-5 melanoma) [µM]	TGI (PC-3 prostate) [µM]	TGI (MCF7 breast) [µM]	TGI (MALME-3M melanoma) [µM]	TGI (SNB-19 CNS) [µM]	TGI (HCC-2998 colon) [µM]	TGI (HCT-116 colon) [µM]	TGI (UACC-257 melanoma) [µM]	TGI (KM12 colon) [µM]	TGI (OVCAR-5 ovarian) [µM]	TGI (HL-60(TB) leukemia) [µM]	TGI (RXF 393 renal) [µM]	TGI (NCI/ADR-RES ovarian) [µM]	TGI (SF-539 CNS) [µM]	TGI (HOP-62 NSCLC) [µM]	GI50 (RXF 393 renal)
CCN(CC)c1nc(=O)c(C(=O)C(C)(C)C)c(C(C)(C)C)o1	> 100	> 100	> 100	> 100	> 100	> 100	> 100	> 100	> 100	> 100	> 100	> 100	> 100	> 100	> 100	> 100	> 100	> 100	> 100	
Cc1cccc(Nc2nc(NNC(=O)Cc3ccccc3)nc(NNC(=O)c3ccncc3)n2)c1	> 10	> 10	> 10	> 10	> 10	> 10	> 10	> 10	> 10	> 10	> 10	> 10	> 10		> 10	> 10	> 10	> 10	> 10	
O=c1c2ccccc2n2n1Cc1ccccc1C2	> 100	> 100	> 100	> 100	> 100	> 100	> 100	> 100	> 100	> 100	> 100	> 100	> 100		> 100	> 100	> 100	> 100	> 100	
O=C1c2cscc2C(=O)c2c(OCc3ccccc3)ccc(OCc3ccccc3)c21	> 100	> 100	> 100	> 100	> 100	> 100	> 100	> 100	> 100	> 100	> 100	> 100	> 100	> 100	> 100	> 100	> 100	> 100	> 100	
O=C(Nn1c(-c2ccccc2)nc2ccccc2c1=O)c1ccc(O)cc1	> 100	> 100	> 100	> 100	> 100	> 100	> 100	> 100	> 100	> 100	> 100	> 100	> 100	> 100	> 100	> 100	> 100	> 100	> 100	
COC(=O)CCSC1=CC(=O)c2nc3ccccc3c3ccnc1c23	41.3	> 100	45.9	48.1	> 53.5	36.7	> 50.2		> 100	27.6	42.2	33	34.8	> 71.4	> 24	37.1	46.6	29.8	> 100	
Cc1ccc(C2SC(N)=Nc3c2c(C)nn3C(=O)c2ccc(Cl)cc2)cc1 (stereo not drawn)	> 10	> 10	> 10	> 10	> 10	> 10	> 10	> 10	> 10	> 10	> 10	> 10	> 10	> 10	> 10	> 10	> 10	> 10	> 10	
Nc1ccc(-c2nc3ccccc3s2)cc1I	> 100	> 100	> 100	> 100	> 100	> 100	> 100	> 100	> 100	> 100		> 100	> 100	> 100	> 100	> 100	> 100	> 100	> 100	
O=c1[nH]cnc2c1ncn2C1SC(CO)C(O)C1O (stereo not drawn)	> 100	> 100	> 100	> 100	> 100	> 100	> 100	> 100	> 100	> 100	> 100	> 100	> 100	> 100	> 100	> 100	> 100	> 100	> 100	
O=C1C(Cl)C(c2cccc(Br)c2)N1c1c(O)c(Cl)cc(Br)c1Cl (stereo not drawn)	27.1	51.8		32.9	27.2	75.1	25.8	55.3	11.5	23.2	27.6	43.9	39.4	56.5	53.5	24.3	89.8	32.6	32.4	
N#Cc1nc(NC(=O)c2ccccc2)sc1N	> 10	> 10	> 10	> 10	> 10	> 10	> 10	> 10	> 10	> 10	> 10	> 10	> 10	> 10	> 10	> 10	> 10	> 10	> 10	
Cc1ccc(-c2n[nH]c(=O)n2N2C(=O)C=CC2=O)cc1	> 100	> 100		> 100	> 100	> 100	> 100	> 100		> 100	> 100	> 100		> 100	> 100	> 100	> 100	> 100	> 100	
O=[N+]([O-])c1cc(C(F)(F)F)ccc1S(=O)(=O)N[C@@H]1CCCC[C@H]1NS(=O)(=O)c1ccc(C(F)(F)F)cc1[N+](=O)[O-]	> 100	> 46.6	33.3	> 75.7	8.15	14.1	5.2	8.05	> 31.6	> 39.9	20.1	> 100	12.1	> 100	3.74	> 28.1	10	3.56	30.9	
O=C(Oc1ccc(OC(Oc2ccccc2)c2ccccc2)cc1)c1ccccc1 (stereo not drawn)	> 100	> 31.6	31	> 31.6	> 31.6	> 31.6	> 31.6	18.8	> 31.6	22	29.2	> 31.6	> 31.6	> 100	> 31.6	> 100	> 31.6	> 31.6	19	
CSc1n[nH]c2n[nH]c(C)c12	> 100	> 100	> 100	> 100	> 100	> 100	> 100	> 100	> 100	> 100	> 100	> 100	> 100	> 100	> 100	> 100	> 100	> 100	> 100	
Cc1cn(C2CC(N=[N+]=[N-])C(CO)O2)c(=O)n(CCCCO)c1=O (stereo not drawn)	> 100	> 100	> 100	> 100		> 100	> 100	> 100	> 100	> 100	> 100	> 100	> 100	> 100	> 100	> 100	> 100	> 100	> 100	
CC(=O)O[C@H]1CC[C@@]2(C)C(=CC[C@H]3[C@@H]4C/C(=C\c5ccncc5)[C@H](OC(C)=O)[C@@]4(C)CC[C@@H]32)C1	24.4	34.6	20.6	29.4	18.9	46.8	30.3	21.7	22.2	26.3	24.1	33.3	16.3	36.6	16.7	9.86	27.3	15.6	17.7	
ClCCCC1COc2ccccc2O1 (stereo not drawn)	> 100	> 100	> 100	> 100	> 100	> 100	> 100	> 100	> 100	> 100	> 100	> 100		> 100	> 100	> 100	> 100	> 100	> 100	
Cc1cn(CCCCOC(=O)NC(CCCNC(N)=O)C(=O)O)c(=O)[nH]c1=O (stereo not drawn)	> 100	> 100	> 100	> 100		> 100	> 100		> 100	> 100	> 100	> 100	> 100	> 100	> 100	> 100	> 100	> 100	> 100	
CCOC(=O)c1nc2cc(C(F)(F)F)ccc2nc1Oc1ccc(C(=O)OC)cc1	> 100	> 100	> 100	> 100	> 100	> 100	> 100	> 100	> 100	> 100	> 100	> 100	> 100	> 100	> 100	> 100	> 100	> 100		
COc1ccc(C(=O)C(CC2C(=O)CC(C)(C)C(C(=O)C(=O)Nc3c(C)cccc3C)C2=O)c2ccc(OC)cc2)cc1 (stereo not drawn)	> 100	> 100	> 100	> 100	> 100	> 100	> 100		> 100	> 100	> 100	> 100	> 100	> 100	> 100	> 100	> 100	> 100	> 100	
Cc1cccc2c(N)c3cccc(C(=O)NCCN4CCOCC4)c3nc12	14		6.29	11.6	2.46	7.19	> 32.1	1.31	3.12	> 100	24.9	7.81	5	8.7	1.2	2.62	42.8	> 100	7.55	
Cc1cn(C2CC(N=[N+]=[N-])C(C(=O)O)O2)c(=O)[nH]c1=O (stereo not drawn)	> 100	> 100		> 100	> 100	> 100	> 100	> 100	> 100	> 100	> 100	> 100	> 100	> 100	> 100	> 100	> 100	> 100	> 100	
N#Cc1c(-c2ccccc2)c(C#N)c(=S)n(C2OCC(O)C(O)C2O)c1N (stereo not drawn)	> 100	> 100	> 100	> 100	> 100	> 100	> 100	> 100	> 100	> 100		> 100	> 100	> 100	> 100	> 100	> 100	> 100	> 100	26.7 µM and > 100 µM
Cc1ccc(C(=O)c2[nH]c(Nc3ccc(Cl)cc3)c(C(=S)Nc3ccccc3)c2N)cc1	15.4	43.4	14.5	24.8		23.3	33.6	19.8	21.9	5.31	11	43.7	18.8	40.9	> 100	17.4	17.1	17.7	15.3	
